The values that follow come from patent US20090030017A1, “THERAPEUTIC AGENT FOR DYSKINESIA” (Eisai R & D Management Co., Ltd, priority 2005, published 2009).

Read-outs that look alike come from different tables or passages of the source.

The subject of assay [1] is dyskinesia. The note with it: cited from earlier work.
Assay [2] has as its system L-DOPA induced dyskinesia. Put plainly: L-DOPA induced dyskinesia model in monkey (MPTP-treated, L-DOPA methylester and benserazide). Format: in vivo, crab-eating macaques. The note with it: substance administered 20 minutes before L-DOPA methylester and benserazide, scored every 30 minutes for 5 hours. The protocol:
To male crab-eating macaques, MPTP (1-methyl-4-phenyl-1,2,3,6-tetrahydropyridine) was frequently administered intravenously or subcutaneously in a dose of 0.2 to 1 mg/kg to cause Parkinson's disease.
In order to check the effect of the substance to be tested, i.e., 3-(2-cyanophenyl)-5-(2-pyridyl)-1-phenyl-1,2-dihydropyridine-2-on, the administration dose of L-DOPA methylester was adjusted to control the severity of the dyskinesia to a certain state.
The behavior before the administration of drugs (L-DOPA methylester and benserazide) was recorded, and then the substance to be tested was administered. 20 minutes after that, L-DOPA methylester and benserazide were administered.
The severity of the symptoms of Parkinson's disease was evaluated based on the items shown in Table 1 in a blinded manner, and shown as the total score.
The dyskinesia induced by the side effects of the administration of L-DOPA methylester and benserazide was evaluated based on the items shown in Table 2 in a blinded manner. […]
The symptoms were evaluated in a time-series manner before the administration of the drugs, and every 30 minutes after the administration of the drugs, for a total of 5 hours. The effect of the substance to be tested was determined as follows. […]

The subject of assay [3] is dyskinesia. The note with it: rhesus monkey models; cited from earlier work.
Assay [4] deals with dyskinesia. The note with it: cited from earlier work. The source holds these as a separate data set.

Regarding `CC(=O)N1N=C(c2ccc(N)cc2)c2cc3c(cc2C[C@H]1C)OCO3` [LY-300164, Talampanel], the effect on dyskinesia entry in the assay with dyskinesia [1] (MPTP-treated monkeys with L-DOPA induced dyskinesia) is reported as “the dyskinesia were improved”. Besides, the “effect on the symptoms of Parkinson's disease (symptom scores)” value in the assay with dyskinesia [1] (experiment with the monkeys) is on record as “not recognized as having an effect of clearly improving the symptoms of Parkinson's disease”. On to `N#Cc1ccccc1-c1cc(-c2ccccn2)cn(-c2ccccc2)c1=O` [3-(2-cyanophenyl)-5-(2-pyridyl)-1-phenyl-1,2-dihydropyridine-2-on], for which the “effect on dyskinesia (dyskinesia score, severity of dyskinesia)” value in assay [2] (FIG. 1, significant vs solvent P<0.01) is “provided an dyskinesia suppressing action”. The “effect on the symptoms of Parkinson's disease (total score)” value in assay [2] (FIG. 2, significant vs solvent P<0.05, P<0.01) is given as “clearly improving the symptoms of Parkinson's disease”.

For the compound `CCN(CC)Cc1cccc(C=Cc2nc3ccc(F)cc3c(=O)n2-c2ccccc2Cl)n1` [3-(2-chlorophenyl)-2-[2-(6-diethylaminomethylpyridine-2-yl)-vinyl]-6-fluoro-3H-quinazoline-4-on], the effect on dyskinesia entry with dyskinesia [3] is listed as “has an effect on dyskinesia”.

Take `CC1(C)O[C@@H]2[C@@H](CO[C@@]3(COS(N)(=O)=O)OC(C)(C)O[C@@H]23)O1` [Topiramate]: the “effect on the symptoms of Parkinson's disease” value with dyskinesia [4] (in vivo) was “shows a tendency of deteriorating the symptoms of Parkinson's disease, although not significantly”. For the same compound, the effect on dyskinesia entry in the assay with dyskinesia [4] (marmoset models) was “has an action of suppressing dyskinesia”.
